Assays:
Rattus norvegicus [1] = experiment: Suppression of conditioned avoidance behavior in rats after ip administration; type: functional
D(2) dopamine receptor = D(2) dopamine receptor (Rattus norvegicus, UniProt P61169); experiment: Displacement of [3H]-Spiperone from Dopamine receptor D2 in rat striatum
Mus musculus = experiment: Antagonism of apomorphine-induced climbing behavior in mice after ip administration; type: functional
Rattus norvegicus [2] = experiment: Suppression of conditioned avoidance behavior in rats following p.o. administration.; type: functional; conditions: po
Rattus norvegicus [3] = experiment: Induction of catalepsy in rats when administered intraperitoneally 4 hr prior to measurement to groups of nine animals; type: functional; conditions: ip
[4] = target: Serotonin 2 (5-HT2) receptor (Rattus norvegicus, UniProt P30994+P08909+P14842); experiment: Potency to displace [3H]- Spiperone from 5-hydroxytryptamine 2 receptor […]
[5] = target: T1, Adrenergic receptor alpha-1 (Rattus norvegicus, UniProt P15823+P23944+P43140); experiment: Potency to displace [3H]- WB-4101 from alpha-1 adrenergic receptor in rat striatum
T1 sequence (P15823 whole entry): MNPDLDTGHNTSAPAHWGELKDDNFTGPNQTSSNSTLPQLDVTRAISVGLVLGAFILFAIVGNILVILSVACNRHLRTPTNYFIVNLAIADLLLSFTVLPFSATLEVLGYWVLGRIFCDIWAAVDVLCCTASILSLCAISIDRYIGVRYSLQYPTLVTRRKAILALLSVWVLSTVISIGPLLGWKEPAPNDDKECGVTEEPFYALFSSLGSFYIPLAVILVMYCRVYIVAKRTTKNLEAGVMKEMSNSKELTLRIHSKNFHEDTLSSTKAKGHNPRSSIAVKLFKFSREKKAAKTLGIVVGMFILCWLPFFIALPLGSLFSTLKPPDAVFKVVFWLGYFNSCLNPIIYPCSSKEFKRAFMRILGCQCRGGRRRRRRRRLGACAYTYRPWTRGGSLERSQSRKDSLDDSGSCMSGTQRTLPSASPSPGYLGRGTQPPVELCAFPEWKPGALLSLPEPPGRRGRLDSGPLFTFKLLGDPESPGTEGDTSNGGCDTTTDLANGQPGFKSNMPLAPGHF
T1 sequence (P23944 whole entry): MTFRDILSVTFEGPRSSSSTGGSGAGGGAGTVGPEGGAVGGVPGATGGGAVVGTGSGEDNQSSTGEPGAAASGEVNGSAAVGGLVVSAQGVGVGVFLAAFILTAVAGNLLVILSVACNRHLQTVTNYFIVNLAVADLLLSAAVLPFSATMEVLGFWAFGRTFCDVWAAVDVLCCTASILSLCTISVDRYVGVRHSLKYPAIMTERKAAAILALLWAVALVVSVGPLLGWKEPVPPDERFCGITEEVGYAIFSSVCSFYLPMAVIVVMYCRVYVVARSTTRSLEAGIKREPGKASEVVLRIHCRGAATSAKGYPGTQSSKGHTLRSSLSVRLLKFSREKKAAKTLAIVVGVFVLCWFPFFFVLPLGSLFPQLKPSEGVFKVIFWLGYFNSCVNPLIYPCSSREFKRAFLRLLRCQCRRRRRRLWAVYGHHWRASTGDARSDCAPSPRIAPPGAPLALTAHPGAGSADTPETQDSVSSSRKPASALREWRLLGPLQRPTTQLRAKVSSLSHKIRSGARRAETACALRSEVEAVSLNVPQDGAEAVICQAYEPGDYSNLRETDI
T1 sequence (P43140 whole entry): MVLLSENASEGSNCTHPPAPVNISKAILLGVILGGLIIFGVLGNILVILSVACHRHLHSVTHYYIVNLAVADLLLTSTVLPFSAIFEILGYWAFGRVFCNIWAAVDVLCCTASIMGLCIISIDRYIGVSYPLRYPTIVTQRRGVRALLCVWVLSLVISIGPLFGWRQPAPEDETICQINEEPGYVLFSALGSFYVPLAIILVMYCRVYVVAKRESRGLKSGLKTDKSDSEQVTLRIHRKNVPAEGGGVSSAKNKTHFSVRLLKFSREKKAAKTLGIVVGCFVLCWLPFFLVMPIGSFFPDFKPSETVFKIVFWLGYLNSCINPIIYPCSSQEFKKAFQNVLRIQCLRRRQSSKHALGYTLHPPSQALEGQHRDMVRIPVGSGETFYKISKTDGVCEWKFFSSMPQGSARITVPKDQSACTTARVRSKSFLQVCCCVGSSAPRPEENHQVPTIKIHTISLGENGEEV

[6] = Activity calculated as Na+ ratio [IC50 (+Na+) / IC50 (-Na+)]; type: functional

Chain of D(2) dopamine receptor (P61169 whole entry): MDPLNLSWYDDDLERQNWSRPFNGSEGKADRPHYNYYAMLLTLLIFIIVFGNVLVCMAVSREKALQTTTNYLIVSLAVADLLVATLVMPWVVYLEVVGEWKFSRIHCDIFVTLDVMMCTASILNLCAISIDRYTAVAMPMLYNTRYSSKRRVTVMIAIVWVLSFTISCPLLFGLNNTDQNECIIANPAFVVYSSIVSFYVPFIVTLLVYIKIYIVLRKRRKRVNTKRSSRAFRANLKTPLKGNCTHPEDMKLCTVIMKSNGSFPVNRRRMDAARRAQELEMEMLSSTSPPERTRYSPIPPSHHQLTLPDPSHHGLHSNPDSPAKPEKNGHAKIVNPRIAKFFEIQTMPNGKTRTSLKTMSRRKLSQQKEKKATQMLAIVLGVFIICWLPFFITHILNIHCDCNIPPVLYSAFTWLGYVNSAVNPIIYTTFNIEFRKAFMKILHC

| Compound | Ki (D(2) dopamine receptor) | ED50 (Rattus norvegicus [1]) | ED50 (Rattus norvegicus [2]) | also measured |
| --- | --- | --- | --- | --- |
| COc1ccccc1N1CCN(Cc2ccc(-c3ccccc3)[nH]2)CC1 | 0.76 nM | 1.9 mg/kg | 13 mg/kg | ED50 (Mus musculus): 0.4 mg/kg |
| c1ccc(-c2ccc(CN3CCN(c4cccc5c4OCCCO5)CC3)[nH]2)cc1 | 0.68 nM | – | 12 mg/kg | ED50 (Mus musculus): 0.2 mg/kg |
| Fc1ccc(-c2ccc(CN3CCN(c4cccc(C(F)(F)F)c4)CC3)[nH]2)cc1 | 19 nM | – | 21 mg/kg | – |
| O=C(c1ccc(F)cc1)N1CCN(Cc2ccc(-c3ccc(F)cc3)[nH]2)CC1 | 120 nM | – | 34 mg/kg | – |
| COc1ccccc1C1CCN(Cc2ccc(-c3ccccc3)[nH]2)CC1 | 1 nM | – | 100 mg/kg | ED50 (Mus musculus): 1.7 mg/kg |
| COc1ccccc1N1CCN(Cc2ccc(-c3ccccc3)n2-c2ccccc2)CC1 | 160 nM | – | > 100 mg/kg | – |
| COc1ccccc1N1CCN(Cc2ccc(-c3ccc(C(C)C)cc3)[nH]2)CC1 | 59 nM | > 100 mg/kg | – | – |
| O=C(NCCN1CCN(c2cccc3ccoc23)CC1)c1ccc(F)cc1 | 7.1 nM | 2.7 mg/kg | 21 mg/kg | ED50 (Rattus norvegicus [3]): > 30 mg/kg; Ki [4]: 29 nM; Ki [5]: 9.7 nM; ED50 (Mus musculus): 1.8 mg/kg; Na+ ratio [6]: 2.5 |
| COc1ccccc1N1CCN(Cc2ccc(-c3ccc(F)cc3)[nH]2)CC1 | 0.96 nM | – | – | ED50 (Rattus norvegicus [3]): > 23 mg/kg; Na+ ratio [6]: 2.3 |
| COc1ccccc1N1CCN(CCNC(=O)c2ccc(F)cc2)CC1 | – | 0.7 mg/kg | – | – |
| COc1ccccc1N1CCN(CCCC(=O)c2ccc(F)cc2)CC1 [FLUANISONE] | 2.4 nM | – | – | Na+ ratio [6]: 1.4 |
| COc1ccccc1N1CCN(Cc2ccc(-c3ccc(F)cc3)n2CCO)CC1 | 52 nM | – | > 100 mg/kg | – |
| CCS(=O)(=O)c1ccc(OC)c(-c2ccc(CN3CCN(c4ccccc4OC)CC3)[nH]2)c1 | 7 nM | – | – | – |
| COc1ccccc1N1CCN(Cc2ccc(-c3ccc(F)cc3)n2C)CC1 | 20 nM | – | – | – |

Continued by falling Ki (D(2) dopamine receptor), values first:

| Ki (D(2) dopamine receptor) | Compound | ED50 (Rattus norvegicus [1]) | ED50 (Rattus norvegicus [2]) | also measured |
| --- | --- | --- | --- | --- |
| 31000 nM | OCCN1CCN(Cc2ccc(-c3ccc(F)cc3)[nH]2)CC1 | > 100 mg/kg | – | – |
| 110 nM | CCCn1c(CN2CCN(c3ccccc3OC)CC2)ccc1-c1ccc(F)cc1 | > 50 mg/kg | – | – |
| 25 nM | COc1ccccc1N1CCN(Cc2ccc(-c3ccc(C(F)(F)F)cc3)[nH]2)CC1 | – | 45 mg/kg | – |
| 16 nM | Fc1ccc(-c2ccc(CN3CCN(c4ccc(F)cc4)CC3)[nH]2)cc1 | – | 40 mg/kg | – |
| 12 nM | O=C(c1ccc(F)cc1)C1CCN(Cc2ccc(-c3ccc(F)cc3)[nH]2)CC1 | – | 34 mg/kg | – |
| 11 nM | Fc1ccc(-c2ccc(CN3CCC(c4ccccc4)CC3)[nH]2)cc1 | > 100 mg/kg | – | – |
| 6.5 nM | COc1ccccc1-c1ccc(CN2CCN(c3ccccc3OC)CC2)[nH]1 | > 100 mg/kg | – | – |
| 5.1 nM | O=C(CCCN1CCN(c2cccc3ccoc23)CC1)c1ccc(F)cc1 | 5.6 mg/kg | 7.6 mg/kg | Ki [4]: 8.2 nM; Ki [5]: 1.5 nM; ED50 (Mus musculus): 5 mg/kg; Na+ ratio [6]: 1.4 |
| 4.4 nM | COc1ccccc1N1CCN(Cc2ccc(-c3cccc(Cl)c3)[nH]2)CC1 | – | > 100 mg/kg | – |
| 1.1 nM | COc1ccccc1N1CCN(Cc2ccc(-c3c(F)cccc3F)[nH]2)CC1 | – | 30 mg/kg | – |
| 0.45 nM | Fc1ccc(-c2ccc(CN3CCN(c4cccc5ccoc45)CC3)[nH]2)cc1 [ELOPIPRAZOLE] | 5.4 mg/kg | 2.5 mg/kg | ED50 (Rattus norvegicus [3]): > 54 mg/kg; Ki [4]: 120 nM; Ki [5]: 220 nM; ED50 (Mus musculus): 2.3 mg/kg; Na+ ratio [6]: 2 |
